According to patent US12215140B2, “Method of stabilizing protein contained in specimen and solution for stabilizing protein contained in specimen” (EIKEN KAGAKU KABUSHIKI KAISHA, priority 2018, dated 2025):

Tested on: hemoglobin-haptoglobin complex
Test: Stability of hemoglobin (as hemoglobin-haptoglobin complex) in samples preserved at 37° C. in preservation solution containing 1 unit/L haptoglobin, Hb measured by latex agglutination method (Examples 1 to 7)
Design: species or system human
Settings: arylboronic acid 15 mmol/L, 37° C.
Protocol: Preservation solutions were prepared with the addition of 40 mmol/L HEPES (pH 6.8), 0.1% BSA, 0.1% NaN3, 1 unit/L haptoglobin, and 0 to 100 mmol/L phenylboronic acid. Samples obtained by adding hemoglobin-added fecal specimens to the preservation solutions so that the fecal concentration would be 0.5% were preserved at 37° C. for 0, 7, 14, and 21 days. The fecal specimens were added with hemoglobin having an amount such that the hemoglobin concentration in the samples would be about 300 μg/L. Instead of the fecal specimens to which hemoglobin was added, samples containing no fecal specimens, in which hemoglobin was added to the preservation solutions so that the hemoglobin concentration in the samples would be 300 μg/L, were similarly preserved. The hemoglobin (Hb) concentrations (μg/L) in the preserved samples were measured by the latex agglutination method.
The concentrations of hemoglobin were measured using “OC-Hemodia (registered trademark) Auto III ‘EIKEN’” (available from EIKEN CHEMICAL CO., LTD.) as a measurement reagent and “OC-sensor DIANA” (available from EIKEN CHEMICAL CO., LTD.) as a measurement device. The above measurement reagent contains latex particles immobilizing an anti-human hemoglobin rabbit polyclonal antibody.
From the measured concentrations of hemoglobin, the recovery ratios (%) were calculated with respect to the hemoglobin concentrations immediately after the fecal specimens were added to the preservation solutions (i.e., concentrations 0 days after the fecal specimens were added).
(§1) For comparative examples, preservation solutions to which no arylboronic acid was added were prepared, and testing was conducted in the same manner.
(§2) The concentration of phenylboronic acid in the preservation solutions of Example 1 was fixed to 15 mmol/L, preservation solutions to which a sugar (sorbitol, sucrose, trehalose, glucose, fructose, or mannitol) was further added at 50 mmol/L or 100 mmol/L or preservation solutions to which no sugar was added were prepared, and testing was conducted in the same manner as in Example 1. For comparative examples, preservation solutions to which the phenylboronic acid and sugar were not added were prepared, and testing was conducted in the same manner.
Preservation solutions in which sorbitol, sucrose, trehalose, glucose, fructose, or mannitol was added at 100 mmol/L to the preservation solutions of Example 1 containing no phenylboronic acid were prepared, and testing was conducted in the same manner as in Example 1. For comparison, the same testing was conducted without adding these sugars.
as §2, with “sorbitol” for “a sugar (sorbitol, sucrose, trehalose, glucose, fructose, or mannitol)”, “was” for “was further”, “10 to 500” for “50”, “sucrose was added at 10 to 250” for “100”
as §1

| Compound | Hb concentration (Feces 1, 0 days) | Recovery ratio with respect to Hb after 0 days (Feces 1, 0 days) | Hb concentration (Feces 1, 7 days) | Recovery ratio with respect to Hb after 0 days (Feces 1, 7 days) | Hb concentration (Feces 1, 14 days) | Recovery ratio with respect to Hb after 0 days (Feces 1, 14 days) | Hb concentration (Feces 2, 0 days) | Recovery ratio with respect to Hb after 0 days (Feces 2, 0 days) | Hb concentration (Feces 2, 7 days) | Recovery ratio with respect to Hb after 0 days (Feces 2, 7 days) | Hb concentration (Feces 2, 14 days) | Recovery ratio with respect to Hb after 0 days (Feces 2, 14 days) | Hb concentration (Feces 3, 0 days) | Recovery ratio with respect to Hb after 0 days (Feces 3, 0 days) | Hb concentration (Feces 3, 7 days) | Recovery ratio with respect to Hb after 0 days (Feces 3, 7 days) | Hb concentration (Feces 3, 14 days) | Recovery ratio with respect to Hb after 0 days (Feces 3, 14 days) | Hb concentration (No feces, 0 days) | Recovery ratio with respect to Hb after 0 days (No feces, 0 days) | also measured |
| --- | --- | --- | --- | --- | --- | --- | --- | --- | --- | --- | --- | --- | --- | --- | --- | --- | --- | --- | --- | --- | --- |
| O=C(O)c1ccccc1B(O)O [2C-PBA, 2-carboxyphenylboronic acid] | 315 µg/L | 100% | 196 µg/L | 62% | 150 µg/L | 48% | 311 µg/L | 100% | 157 µg/L | 50% | 103 µg/L | 33% | 300 µg/L | 100% | 124 µg/L | 41% | 76 µg/L | 25% | 292 µg/L | 100% | Hb concentration (No feces, 7 days): 272 µg/L; Recovery ratio with respect to Hb after 0 days (No feces, 7 days): 93%; Hb concentration (No feces, 14 days): 264 µg/L; Recovery ratio with respect to Hb after 0 days (No feces, 14 days): 90% |
| O=C(O)c1ccc(B(O)O)cc1 [4C-PBA, 4-carboxyphenylboronic acid] | 312 µg/L | 100% | 252 µg/L | 81% | 234 µg/L | 75% | 315 µg/L | 100% | 239 µg/L | 76% | 227 µg/L | 72% | 300 µg/L | 100% | 219 µg/L | 73% | 194 µg/L | 65% | 279 µg/L | 100% | Hb concentration (No feces, 7 days): 275 µg/L; Recovery ratio with respect to Hb after 0 days (No feces, 7 days): 98%; Hb concentration (No feces, 14 days): 271 µg/L; Recovery ratio with respect to Hb after 0 days (No feces, 14 days): 97% |
